Source: paper PMC9884089 (Journal of Medicinal Chemistry, 2023)

Experiments:
PARP2 = biological target: T1, PARP2 (Homo sapiens, UniProt Q9UGN5); test: biochemical; assay type: biochemical; conditions: > = less than 50% inhibition at highest concentration; ≫ = no inhibition; read-out: PARP2 IC50
T1 construct: made in house

TNKS2 = biological target: T2, TNKS2 (Homo sapiens, UniProt Q9H2K2); test: biochemical; conditions: read-out: TNKS2 IC50; > = less than 50% inhibition at highest concentration
T2 sequence (Q9H2K2 1-1166): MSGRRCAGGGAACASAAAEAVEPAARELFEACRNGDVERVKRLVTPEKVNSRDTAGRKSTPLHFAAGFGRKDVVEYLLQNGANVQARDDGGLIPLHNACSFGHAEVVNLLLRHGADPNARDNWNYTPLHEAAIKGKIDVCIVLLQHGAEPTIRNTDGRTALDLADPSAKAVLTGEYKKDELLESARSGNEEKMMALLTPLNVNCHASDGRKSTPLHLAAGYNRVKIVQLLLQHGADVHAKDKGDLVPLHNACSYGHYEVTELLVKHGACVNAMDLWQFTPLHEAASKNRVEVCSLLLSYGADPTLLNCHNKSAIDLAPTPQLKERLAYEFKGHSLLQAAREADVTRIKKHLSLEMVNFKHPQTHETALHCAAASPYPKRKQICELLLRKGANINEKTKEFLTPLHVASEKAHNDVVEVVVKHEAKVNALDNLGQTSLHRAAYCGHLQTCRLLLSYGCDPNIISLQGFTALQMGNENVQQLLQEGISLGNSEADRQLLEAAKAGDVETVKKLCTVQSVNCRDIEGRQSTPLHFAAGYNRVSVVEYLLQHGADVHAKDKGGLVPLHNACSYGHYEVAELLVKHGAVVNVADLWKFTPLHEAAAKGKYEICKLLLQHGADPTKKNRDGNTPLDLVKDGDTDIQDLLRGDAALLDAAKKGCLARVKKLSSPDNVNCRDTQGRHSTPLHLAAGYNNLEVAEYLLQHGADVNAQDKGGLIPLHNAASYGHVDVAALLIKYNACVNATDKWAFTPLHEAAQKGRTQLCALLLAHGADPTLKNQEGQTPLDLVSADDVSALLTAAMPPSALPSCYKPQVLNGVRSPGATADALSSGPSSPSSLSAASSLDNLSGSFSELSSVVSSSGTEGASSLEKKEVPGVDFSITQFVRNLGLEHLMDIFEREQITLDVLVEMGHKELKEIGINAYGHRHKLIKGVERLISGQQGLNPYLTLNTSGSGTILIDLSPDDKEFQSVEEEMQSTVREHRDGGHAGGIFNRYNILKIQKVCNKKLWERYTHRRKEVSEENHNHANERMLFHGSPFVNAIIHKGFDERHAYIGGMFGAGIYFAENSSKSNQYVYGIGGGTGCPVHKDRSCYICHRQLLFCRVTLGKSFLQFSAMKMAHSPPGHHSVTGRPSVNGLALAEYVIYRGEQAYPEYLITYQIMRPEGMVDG
Description: The proteins used in Tables 1–3 were produced as described earlier. Dockerin constructs to allow enhanced activity assays for mono-ARTs (Table 4) were produced in Escherichia coli with an N-terminal maltose binding protein (MBP) and a C-terminal dockerin domain from Hungateiclostridium thermocellum Cel48s as described recently.[47]
Inhibition experiments were performed using a homogenous assay measuring NAD+ consumption.[80]−[82] Reactions were carried out in quadruplicate, and IC50 curves were fitted using sigmoidal dose response curve (four variables) in GraphPad Prism version 8.02. […] Assay conditions for PARP2, TNKS2, PARP10, and PARP15 (Tables 1–3) were recently reported.[44] The conditions for the proximity-enhanced mono-ART assays (Table 4) were also reported recently.[47] PARP6 (400 nM) inhibition was measured using the standard buffer (50 mM sodium phosphate pH 7.0) for the enhanced activity assay using 500 nM NAD^+ and 18 h incubation in r.t..

[1] = tested on: HeLa Flp-In T-REx-PARP10 cells; test: PARP10 rescue assay (colony formation, Dox-induced PARP10 overexpression); assay type: cell-based, human; conditions: for EC50: Homo sapiens, HeLa, read-out: PARP10 rescue EC50; for Rescue of cells from PARP10-induced cell death: at 1 μM, colony formation
Description: HeLa Flp-In T-REx-PARP10 and -PARP10-G888W cells were grown in DMEM medium supplemented with 10% heat-inactivated fetal calf serum at 37 °C in 5% CO2.[92] For colony formation assays, 500 HeLa cells were seeded in 6-well culture plates. Once the cells adhered, protein expression was induced by adding 500 ng/mL Dox. […] The number of colonies was assessed using ImageJ. EC50 curves were fitted using three variables in GraphPad Prism version 8.02.

[2] = Metabolic stability in HLM; conditions: 37 °C, 1 h, NADPH regenerating system
Description: Each compound in DMSO solution was incubated at 37 °C for 1 h in phosphate buffer (25 mM pH 7.4), human liver microsomal protein (0.2 mg/mL), and in the presence of an NADPH regenerating system (NADPH 0.2 mM, […] 1 mM, D-glucose-6-phosphate 4 mM, 4 unit/mL glucose-6-phosphate dehydrogenase) in 48 mM MgCl2 at a final volume of 500 μL. The reaction was stopped by cooling in ice and quenched by adding 1.0 mL of acetonitrile. The reaction mixtures were then centrifuged (4000 rpm for 10 min), and the supernatant was taken, dried under nitrogen flow, and suspended in 100 μL of methanol. The parent drug and metabolites were subsequently determined by UV/LC–MS. The percentage of not metabolized compound was calculated by comparison with reference solutions. For each compound, the determination was performed in three independent experiments.

Stability in MeOH = assay type: physicochemical; conditions: 500 μM
Description: For the stability measurements in polar solvents, each compound was dissolved at room temperature in MeOH or PBS (0.025 M, pH 7.4) up to a final concentration of 500 μM.

T1 sequence (Q9UGN5 whole entry): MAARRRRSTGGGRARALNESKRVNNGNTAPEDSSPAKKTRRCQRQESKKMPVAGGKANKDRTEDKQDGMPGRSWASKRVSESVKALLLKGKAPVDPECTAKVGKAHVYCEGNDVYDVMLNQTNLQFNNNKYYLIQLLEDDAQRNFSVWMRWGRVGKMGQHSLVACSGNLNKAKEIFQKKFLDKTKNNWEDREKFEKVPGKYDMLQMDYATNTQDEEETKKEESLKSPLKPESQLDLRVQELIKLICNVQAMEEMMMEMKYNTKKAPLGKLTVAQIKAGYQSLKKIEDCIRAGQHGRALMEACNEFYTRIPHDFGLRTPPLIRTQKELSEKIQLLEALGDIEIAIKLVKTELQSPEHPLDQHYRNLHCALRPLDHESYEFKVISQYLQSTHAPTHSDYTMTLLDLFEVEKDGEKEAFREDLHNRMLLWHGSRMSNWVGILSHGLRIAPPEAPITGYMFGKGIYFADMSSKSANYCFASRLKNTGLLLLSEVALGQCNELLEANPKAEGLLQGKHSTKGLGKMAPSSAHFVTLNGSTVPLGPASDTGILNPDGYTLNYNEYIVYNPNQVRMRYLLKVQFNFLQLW

SMILES	IC50 (PARP2)	IC50 (TNKS2)	EC50 [1]	Rescue of cells from PARP10-induced cell death [1]	metabolic stablity % (unchanged compound) [2]	stab. in MeOH (Stability in MeOH)
COc1ccc(OC)c2c1sc1nnc(N)n12 [Compound 27, 5,8-Dimethoxy[1,2,4]triazolo[3,4-b][1,3]benzothiazol-3-amine]	10 µM	10 µM	0.15 µM	efficiently rescued cells from PARP10-induced cell death	99.11%	>24 h
Cc1ccc2c(c1)sc1nnc(N)n12 [Compound 21, 7-Methyl[1,2,4]triazolo[3,4-b][1,3]benzothiazol-3-amine]		5.7 µM	0.5 µM	efficiently rescued cells from PARP10-induced cell death	99.14%	>24 h
